Read-outs that look alike come from different tables or passages of the source.
What was measured:
[1] = tested on: Relapsing-remitting multiple sclerosis patients (FORTE cohort); experiment: Annualized relapse rate in FORTE cohort patients genetically predicted as responders/non-responders by predictive models; assay type: in vivo, human
Description: Relapsing-remitting multiple sclerosis patients were treated with either 20 mg GA or 40 mg GA daily in the Teva FORTE clinical trial (www.medicalnewstoday.com/articles/48863.php). Blood samples were drawn from each subject that signed an informed consent for the pharmacogenetic study and analyzed as described below.
A clinical relapse was defined as the appearance of one or more new neurological abnormalities or the reappearance of one or more previously observed neurological abnormalities.
To find genotypic profiles that discriminate responders (R) from the non-responders (NR) to the treatment, we used a backward stepwise logistic regression procedure on the SNPs that emerged significant using the narrow definition (e.g., at p-value=10^−4 or lower). Other models were generated based on combinatorial optimization heuristics. Once a pool of models was created, selected models were chosen based on the low value of Akaike's Information Criterion (AIC) and low number SNPs in the model. The model chosen in the previous step went through “Leave one out” cross validation, searching for high values of the Area Under the ROC curve.
The response probability p(Response) of a specific patient was calculated according to the tables and formulas indicated for each specific model.
Patients with p(Response) above 0.5 were predicted to be responders and patients with p(Response) below 0.5 were predicted to be non-responders. When the model was retrospectively applied to the full cohort of 599 FORTE patients, we observed that the annualized relapse rate (ARR) in patients genetically predicted as responders was reduced by 62% compared to all patients, and by 76% compared to non-responders (p<0.0001). When we applied the model retrospectively to a second independent cohort of 79 patients, the model could identify subpopulations genetically predicted to be responders and non-responders with respectively lower (for responders) and higher (for non-responders) relapse rate. In the placebo-treated arm no specific pattern could be observed.
The models were retrospectively applied to the full cohort of 599 FORTE patients using different predictive thresholds. The ratios between the Annualized Relapse Rate (ARR) of genetically predicted responder patients (R) compared to the average ARR in genetically predicted non-responder patients (NR), and the ratios between the average ARE observed in the genetically predicted responder patients (R) compared to average ARR in the whole study population (All), according to each predictive threshold or two predictive thresholds, are presented in table 37. […]

[2] = tested on: multiple sclerosis patients (European/Canadian study); experiment: Annualized relapse rate in European/Canadian study patients genetically predicted as responders/non-responders by FM1 model; assay type: in vivo, human; settings: 0.8 threshold
Source text: In comparison, the average ARR in either placebo-treated patients or non treated patients (from European/Canadian study and CORAL, respectively) genetically predicted as responders was −7% and 26% lower, respectively, than in patients predicted as Non-Responders and 10% and 11% lower than in the whole study population. The reduction in average ARR by GA over placebo-treated patients in the responders population in the European/Canadian study was 79%.

RRMS subjects = settings: cited from earlier work
RRMS patients = settings: cited from earlier work
[3] = FM1 model, 0.8 threshold, FORTE
[4] = model GM2068, FORTE cohort, whole study population (All)
[5] = model GM2090, FORTE cohort, whole study population (All)
[6] = model GM2094, FORTE cohort, whole study population (All)
[7] = model GM2277, FORTE cohort, whole study population (All)

Substance: Glatiramer acetate [GA]
- average ARR in GA-treated predicted responders lower than in patients predicted as non-responders [1, 3]: 76%
- average ARR in GA-treated predicted responders lower than in the whole study population [1, 3]: 64%
- reduction of annualized relapse rate (ARR) in genetically predicted responders compared to all patients ([1]; FM1 model, p(Response) threshold 0.5, full cohort of 599 FORTE patients): 62%
- reduction of annualized relapse rate (ARR) in genetically predicted responders compared to non-responders ([1]; FM1 model, p(Response) threshold 0.5, full cohort of 599 FORTE patients, p<0.0001): 76%
- ARR Vs. all ([1]; model FM1, response prediction All): 100%
- ARR ([1]; model FM1, response prediction All (whole FORTE study population, threshold NA)): 0.241
- ARR Vs. all ([1]; model FM1a, response prediction All): 100%
- ARR ([1]; model FM1a, response prediction All (whole FORTE study population, threshold NA)): 0.245
- ARR Vs. all ([1]; model FM2, response prediction All): 100%
- ARR ([1]; model FM2, response prediction All (whole FORTE study population, threshold NA)): 0.245
- ARR Vs. all ([1]; model GM1003, response prediction All): 100%
- ARR ([1]; model GM1003, response prediction All (whole FORTE study population, threshold NA)): 0.26
- ARR Vs. all ([1]; model GM1006, whole study population (All)): 100%
- ARR ([1]; model GM1006, whole study population (All), FORTE cohort, 599 patients): 0.253
- ARR Vs. all ([1]; model GM1011, whole study population (All)): 100%
- ARR ([1]; model GM1011, whole study population (All), FORTE cohort, 599 patients): 0.256
- ARR Vs. all ([1]; model GM1012, whole study population (All)): 100%
- ARR ([1]; model GM1012, whole study population (All), FORTE cohort, 599 patients): 0.251
- ARR Vs. all ([1]; model GM2004, whole study population (All)): 100%
- ARR ([1]; model GM2004, whole study population (All), FORTE cohort, 599 patients): 0.255
- ARR [1, 4]: 0.256
- ARR Vs. all [1, 4]: 100%
- ARR [1, 5]: 0.254
- ARR Vs. all [1, 5]: 100%
- ARR [1, 6]: 0.251
- ARR Vs. all [1, 6]: 100%
- ARR [1, 7]: 0.258
- ARR Vs. all [1, 7]: 100%
- ARR ([1]; model GM2338, response prediction All (whole study population), threshold NA, FORTE cohort): 0.251
- ARR Vs. all ([1]; model GM2338, response prediction All, threshold NA, FORTE cohort): 100%
- ARR ([1]; model GM3102, response prediction All (whole study population), threshold NA, FORTE cohort): 0.263
- ARR Vs. all ([1]; model GM3102, response prediction All, threshold NA, FORTE cohort): 100%
- ARR ([1]; model GM3150, response prediction All (whole study population), threshold NA, FORTE cohort): 0.26
- ARR Vs. all ([1]; model GM3150, response prediction All, threshold NA, FORTE cohort): 100%
- ARR ([1]; model GM3332, response prediction All (whole study population), threshold NA, FORTE cohort): 0.262
- ARR Vs. all ([1]; model GM3332, response prediction All, threshold NA, FORTE cohort): 100%
- average ARR in GA-treated predicted responders lower than in patients predicted as non-responders [2]: 81%
- average ARR in GA-treated predicted responders lower than in the whole study population [2]: 77%
- reduction in average ARR by GA over placebo-treated patients in the responders population [2]: 79%
- tolerability (RRMS subjects; daily standard dose of 20 mg): generally well tolerated
- reduction of relapse rate compared with placebo (RRMS subjects; largest controlled study, GA 20 mg, RRMS): 32%
- relapse rate (RRMS subjects; largest controlled study, under GA 20 mg (1.98 under placebo)): 1.34
- median cumulative number of Gd-enhancing lesions (RRMS subjects; over 9 months of treatment, 20 mg group (17 under placebo)): 11 lesions
- response rate (RRMS patients; DRB1*1501 carriers): 81.8%
- response rate (RRMS patients; non-carriers of DRB1*1501): 39.4%
- response rate (RRMS patients; whole study population): 50%

— patent US9499868B2, “Determination of single nucleotide polymorphisms useful to predict response for glatiramer acetate” (TEVA PHARMACEUTICAL INDUSTRIES, LTD., priority 2011, dated 2016)
